Patent US5731155A, “Compositions for inhibition of intracellular transcription factors and methods therefor” (Washington University, priority 1996, dated 1998)
Entries after “also recorded” stand apart in the source; their conditions may differ. Where a SMILES comes first, the peptide text is derived from it. [ ]: non-standard residue; d: D form. The star is where a group is joined. Biotin = O=C1N[C@H]2[C@H](CS[C@H]2CCCCC(=O)*)N1; pY = N[C@@H](Cc1ccc(OP(=O)(O)O)cc1)C(=O)O; Ahx = NCCCCCC(=O)O

Tests used:
STAT3 [1] = molecular target: T1, STAT3 (Mus musculus, UniProt P42227); assay: Precipitation of STAT3 from BaMR cytosolic homogenates with biotinylated IL-10 receptor peptides; assay type: binding; settings: for precipitation of / binding to the 92 kD STAT3 protein: biotinylated 12 amino acid peptides, BaMR cytosolic homogenates; for concentration of biotinylated peptide sufficient to precipitate STAT3 (comparable amounts): increasing peptide concentrations, data not shown
T1 construct: Cytosolic homogenates of BaMR cells were precipitated with the biotinylated 12 amino acid peptides; endogenous in cells; host or cells: BaMR (BaF3 pre-B cells transfected with the IL-10 receptor) homogenates
T1 sequence (P42227 whole entry): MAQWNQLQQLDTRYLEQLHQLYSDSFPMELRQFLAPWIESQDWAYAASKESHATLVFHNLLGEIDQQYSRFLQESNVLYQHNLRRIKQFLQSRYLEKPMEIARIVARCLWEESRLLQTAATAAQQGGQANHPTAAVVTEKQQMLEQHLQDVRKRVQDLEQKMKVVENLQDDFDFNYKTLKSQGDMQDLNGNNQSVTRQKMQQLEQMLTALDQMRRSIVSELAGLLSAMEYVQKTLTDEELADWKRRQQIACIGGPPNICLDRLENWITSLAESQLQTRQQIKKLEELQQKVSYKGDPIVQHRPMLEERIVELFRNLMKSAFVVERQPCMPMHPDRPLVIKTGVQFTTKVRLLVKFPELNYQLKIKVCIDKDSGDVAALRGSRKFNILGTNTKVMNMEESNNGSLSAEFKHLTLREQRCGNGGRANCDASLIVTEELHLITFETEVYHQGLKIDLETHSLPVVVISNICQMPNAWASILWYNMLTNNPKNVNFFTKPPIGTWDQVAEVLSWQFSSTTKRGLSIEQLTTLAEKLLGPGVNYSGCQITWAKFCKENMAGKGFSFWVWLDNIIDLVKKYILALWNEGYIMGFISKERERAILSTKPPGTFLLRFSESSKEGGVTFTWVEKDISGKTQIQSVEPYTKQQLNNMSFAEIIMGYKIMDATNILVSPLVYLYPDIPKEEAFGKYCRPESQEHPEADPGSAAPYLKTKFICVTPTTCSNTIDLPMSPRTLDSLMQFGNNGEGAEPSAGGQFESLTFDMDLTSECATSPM
From the text: Aminoterminally biotinylated peptides were synthesized comprising 12 amino acids in which the peptides each contained a different region of the IL-10 receptor intracellular domain containing a tyrosine residue. These peptides corresponded to positions 370 to 381 (SEQ ID NO:26, Gln-Gln-Leu-Gly-Xaa-His-Gln-Asp-Gln-Asp-Asp-Ser), 392-403 (SEQ ID NO:27, Gly-Gln-Pro-Lys-Xaa-Thr-Gln-Asp-Ala-Ser-Asp-Leu), 423 to 434 (SEQ ID NO:24, Thr-Phe-Gln-Gly-Xaa-Gln-Lys-Gln-Thr-Arg-Trp-Lys) and 473 to 484 (SEQ ID NO:25, Leu-Ala-Ala-Gly-Xaa-Leu-Lys-Gln-Glu-Ser-Gln-Gly) in which the amino acids identified in the sequence as Xaa in positions 374, 396, 427, and 477 of the respectively peptides are phosphorylated tyrosines. In addition, the sequences 423 to 434 (SEQ ID NO:28, Thr-Phe-Gln-Gly-Tyr-Gln-Lys-Gln-Thr-Arg-Trp-Lys) and 473 to 484 (SEQ ID NO:29, Leu-Ala-Ala-Gly-Tyr-Leu-Lys-Gln-Glu-Ser-Gln-Gly) contained the non-phosphorylated tyrosines in the positions 427, and 477 of the IL-10 receptor intracellular domain. Cytosolic homogenates of BaMR cells were precipitated with the biotinylated 12 amino acid peptides. […] In contrast to this, no binding to the STAT3 transcription factor occurred with the peptides containing phosphorylated tyrosines in positions 374 (SEQ ID NO:26) and 396 (SEQ ID NO:27), the peptides containing non-phosphorylated tyrosines in positions 427 (SEQ ID NO:28) and 477 (SEQ ID NO:29) and the phosphorylated peptide corresponding to the amino acid sequences 436 to 447 of the IFNγ receptor α chain intracellular domain (FIG. 10). Whereas both the 427 and the 477 phosphopeptides precipitated the STAT3 transcription factor, none of the phosphopeptides coprecipitated STAT1.

IFNγ receptor α chain = assay: IFNγ dependent tyrosine phosphorylation of the IFNγ receptor α chain in Colo-205 cells (4G10 western blot); assay type: cell-based, human; settings: Colo-205 treated for 5 minutes
From the text: For these experiments, Colo-205, a human adenocarcinoma cell line obtained from the ATCC, was used because it was known to express a high number of IFNγ receptors (10,000 receptors/cell) and has been well characterized with regard to both biologic responsiveness to IFNγ and IFNγ receptor […] phosphorylation (Hershey and Schreiber, 1989; Hershey et al., 1990 both of which are incorporated by reference). Colo-205 cells (5-10×10^7) were resuspended in one ml of PBS-10% FCS and were then incubated at 37° C., either in the presence or absence of rHuIFNγ (10,000 IRU). Purified recombinant human IFNγ was provided by Dr. Susan Kramer of Genentech, Inc. (South San Francisco, Calif.). […] Purified rHuIFNγ was radioiodinated, using Bolton Hunter reagent (ICN Chemicals, Radioisotope Division, Irvine, Calif.) to specific activities of 6.5-17.8 μCi/μg as described in Celada et al. (J Clin Invest 76:2196-2205, 1985 which is incorporated by reference). The reaction was stopped by adding 4 mls of ice-cold PBS. Cells were pelleted, washed once in ice-cold PBS, and then lysed in one ml of lysis buffer (25 mM Tris-HCl (pH 8.0), 1% NP-40, 150 mM NaCl, 1 mM sodium orthovanadate, 10 mM NaF, 1 mM PMSF, 5mM iodoacetamide, […] leupeptin and aprotinin). Solubilized cells were centrifuged at 15,000×g to remove cell nuclei and the supernatants were then incubated with 10 μg of GIR-94 for 30 minutes at 4° C. Protein G sepharose was added to the reaction mixture and the incubation continued for an additional 30 minutes. […]
To determine the amount of receptor precipitated at each time point, aliquots from each immunoprecipitate were subjected to western blot analysis using a monoclonal antibody (GIR-94, a murine antibody IgG2b) that is specific for the human IFNγ receptor extracellular domain. In the absence of added IFNγ, no tyrosine phosphorylated receptor was detected (FIG. 1, lane 1). […]

STAT3 [2] = molecular target: T1, STAT3; assay: Inhibition of IL-10 dependent STAT3 phosphorylation in BaMR cell homogenates; assay type: biochemical; settings: for effect on IL-10 dependent phosphorylation of STAT3: peptide 100 μM, 45 minutes at 4° C., then 100 ng/ml IL-10
Experimental: BaMR cell homogenates were prepared in a Dounce homogenizer and 18 μg of total protein was incubated without or with IL-10 at a concentration of 100 ng/ml for 15 minutes at 37° C. (FIG. 11, lanes 1 and 2). In lanes 3-8, 18 μg total protein of the BaMR homogenates was incubated for 45 minutes at 4° C. with a 100 μM concentration of the IL-10-receptor peptides having phosphorylated tyrosines at positions 374 (SEQ ID NO:26), 396 (SEQ ID NO:27), 427(SEQ ID NO:24), and 477(SEQ ID NO:25) (lanes 3-6) or 100 μM concentration of the non phosphorylated peptides having tyrosines at positions 427 (SEQ ID NO:28) and 477 (SEQ ID NO:29). Reaction mixtures were stimulated with 100 ng/ml IL-10 as described above and homogenates were precipitated with STAT3 or STAT1 specific antisera. Precipitates were blotted with phosphotyrosine specific antibody RC-20 and reactions developed using the ECL-system. Blots were stripped and reblotted with STAT3 and STAT1 specific antisera, respectively.

Row | Compound | precipitation of / binding to the 92 kD STAT3 protein (STAT3 [1]) | other results
1 | C[C@@H](O)[C@H](NC(=O)CCCCCNC(=O)CCCC[C@@H]1SC[C@@H]2NC(=O)N[C@@H]21)C(=O)N[C@@H](Cc1ccccc1)C(=O)N[C@@H](CCC(N)=O)C(=O)NCC(=O)N[C@@H](Cc1ccc(O)cc1)C(=O)N[C@@H](CCC(N)=O)C(=O)N[C@@H](CCCCN)C(=O)N[C@@H](CCC(N)=O)C(=O)N[C@H](C(=O)N[C@@H](CCCNC(=N)N)C(=O)N[C@@H](Cc1c[nH]c2ccccc12)C(=O)N[C@@H](CCCCN)C(=O)O)[C@@H](C)O [SEQ ID NO:28, Thr-Phe-Gln-Gly-Tyr-Gln-Lys-Gln-Thr-Arg-Trp-Lys] ({Biotin-Ahx}-TFQGYQKQTRWK-OH) | no binding | –
2 | rHuIFNγ: Purified recombinant human IFNγ provided by Genentech, Inc. | – | IFNγ dose at which IFNγ receptor tyrosine phosphorylation reached maximal levels (IFNγ receptor α chain): 10,000 IRU/ml; IFNγ dose at which IFNγ receptor tyrosine phosphorylation was detected (IFNγ receptor α chain): 100 IRU/ml
3 | Leu-Ala-Ala-Gly-Xaa-Leu-Lys-Gln-Glu-Ser-Gln-Gly [SEQ ID NO:25] | specifically precipitated; also recorded: coprecipitated | concentration of biotinylated peptide sufficient to precipitate STAT3 (comparable amounts) (STAT3 [1]): 4 to 20 µM; effect on IL-10 dependent phosphorylation of STAT3 (STAT3 [2]): specifically inhibited
4 | CC(C)C[C@H](NC(=O)[C@H](CCC(N)=O)NC(=O)[C@H](CCC(N)=O)NC(=O)CCCCCNC(=O)CCCC[C@@H]1SC[C@@H]2NC(=O)N[C@@H]21)C(=O)NCC(=O)N[C@@H](Cc1ccc(OP(=O)(O)O)cc1)C(=O)N[C@@H](Cc1c[nH]cn1)C(=O)N[C@@H](CCC(N)=O)C(=O)N[C@@H](CC(=O)O)C(=O)N[C@@H](CCC(N)=O)C(=O)N[C@@H](CC(=O)O)C(=O)N[C@@H](CC(=O)O)C(=O)N[C@@H](CO)C(=O)O [SEQ ID NO:26, Gln-Gln-Leu-Gly-Xaa-His-Gln-Asp-Gln-Asp-Asp-Ser] ({Biotin-Ahx}-QQLG[pY]HQDQDDS-OH) | no binding | –
5 | CC(C)C[C@H](NC(=O)CCCCCNC(=O)CCCC[C@@H]1SC[C@@H]2NC(=O)N[C@@H]21)C(=O)N[C@@H](C)C(=O)N[C@@H](C)C(=O)NCC(=O)N[C@@H](Cc1ccc(O)cc1)C(=O)N[C@@H](CC(C)C)C(=O)N[C@@H](CCCCN)C(=O)N[C@@H](CCC(N)=O)C(=O)N[C@@H](CCC(=O)O)C(=O)N[C@@H](CO)C(=O)N[C@@H](CCC(N)=O)C(=O)NCC(=O)O [SEQ ID NO:29, Leu-Ala-Ala-Gly-Tyr-Leu-Lys-Gln-Glu-Ser-Gln-Gly] ({Biotin-Ahx}-LAAGYLKQESQG-OH) | no binding | –
6 | CC(C)C[C@H](NC(=O)[C@@H](NC(=O)[C@H](Cc1c[nH]cn1)NC(=O)[C@@H]1CCCN1C(=O)[C@H](CCCCN)NC(=O)[C@H](CC(=O)O)NC(=O)[C@H](Cc1ccc(OP(=O)(O)O)cc1)NC(=O)CNC(=O)[C@H](Cc1ccccc1)NC(=O)[C@H](CO)NC(=O)[C@@H](NC(=O)CCCCCNC(=O)CCCC[C@@H]1SC[C@@H]2NC(=O)N[C@@H]21)[C@@H](C)O)C(C)C)C(=O)N[C@H](C(=O)O)C(C)C [SEQ ID NO:4, Biotin-TSFGY-PO4 DKPHVLV] ({Biotin-Ahx}-TSFG[pY]DKPHVLV-OH) | no binding | –
7 | CC(C)C[C@H](NC(=O)[C@H](CC(=O)O)NC(=O)[C@H](CO)NC(=O)[C@H](C)NC(=O)[C@H](CC(=O)O)NC(=O)[C@H](CCC(N)=O)NC(=O)[C@@H](NC(=O)[C@H](Cc1ccc(OP(=O)(O)O)cc1)NC(=O)[C@H](CCCCN)NC(=O)[C@@H]1CCCN1C(=O)[C@H](CCC(N)=O)NC(=O)CNC(=O)CCCCCNC(=O)CCCC[C@@H]1SC[C@@H]2NC(=O)N[C@@H]21)[C@@H](C)O)C(=O)O [SEQ ID NO:27, Gly-Gln-Pro-Lys-Xaa-Thr-Gln-Asp-Ala-Ser-Asp-Leu] ({Biotin-Ahx}-GQPK[pY]TQDASDL-OH) | no binding | –
8 | Thr-Phe-Gln-Gly-Xaa-Gln-Lys-Gln-Thr-Arg-Trp-Lys [SEQ ID NO:24] | specifically precipitated; also recorded: coprecipitated | concentration of biotinylated peptide sufficient to precipitate STAT3 (comparable amounts) (STAT3 [1]): 0.8 µM; potency in inhibiting STAT3 phosphorylation relative to SEQ ID NO:25 (STAT3 [2]; concentration-dependent inhibition, FIG. 12): 5 to 10 fold; effect on IL-10 dependent phosphorylation of STAT3 (STAT3 [2]): specifically inhibited
